Series [1] has as its system L1210. Kind of series: Cross resistance to the compound expressed as as log of ratio of molar concentration of drug inducing 50% inhibition of growth in murine leukemia L1210/R71 and L1210/0 cells. The format is functional, Mus musculus.
The next series in a line: physchem. As to conditions: octanol/water, pH 7.4.
Series [2] deals with CCRF-CEM. Put plainly: Effect on cross resistance of CCRF-CEM cells resistant to vincristine expressed as as log of ratio of molar concentration of compound inducing 50% growth inhibition in resistant to sensitive cells. The format is functional, Homo sapiens.
Series [3] deals with CCRF-CEM. Put plainly: Effect on cross resistance of CCRF-CEM cells resistant to vincristine expressed as log of ratio of molar concentration of compound inducing 50% growth inhibition in resistant to sensitive cells. The format is functional, Homo sapiens.
The subject of series [4] is CHO. Kind of series: Cross resistance of chinese hamster cells resistant to actinomycin D as log of ratio of molar concentration of compound inducing 50% inhibition of growth in resistant and sensitive cells. The format is functional, Cricetulus griseus.
The conditions of series [5]: octanol/water, pH 7.4.
The test system of series [6] is L1210.
Description: (§1) Cross resistance profile versus L1210/R71 cells.
The test system of series [7] is L1210. As to conditions: Mus musculus.
Description: as §1
Series [8] has as its system CHO. As to conditions: Cricetulus griseus.
Description: Effect on cross resistance of CHO cells resistant to colchicine (CHRC5)

Description for CHRC5 cell line: Collateral sensitivity of CHRC5 cells to local anesthetics/steroids as log of ratio of molar concentration of drug inducing 50% growth inhibition in CHO AUXB1 cells to that of CHRC5 cells

As a reminder, the logD is lipophilicity at a set pH, counting ionised and neutral species. A higher logD goes with higher lipophilicity. On to `CCc1nc(N)nc(N)c1-c1ccc(Cl)c(Cl)c1` [ETOPRINE], for which the “Log CR” value with L1210 [1] came out at 1.69. Also, the logD in the series “physchem” came to 2.93.

In the case of `COc1cc([C@@H]2c3cc4c(cc3[C@@H](O[C@@H]3O[C@@H]5CO[C@@H](c6cccs6)O[C@H]5[C@H](O)[C@H]3O)[C@H]3COC(=O)[C@H]23)OCO4)cc(OC)c1O` [TENIPOSIDE], the “Log CR” value in the series on CCRF-CEM [2] was determined as 1.56. Also, in the series “physchem”, the logD was determined as 1.22.

Consider `COc1cc([C@@H]2c3cc4c(cc3[C@H](O)[C@H]3COC(=O)[C@H]23)OCO4)cc(OC)c1OC` [PODOFILOX], for which the “Log CR” value in the series on CCRF-CEM [3] is given as 0.07. Moreover, in “physchem”, the logD was found to be 2.01.

Take `CN(Cc1cnc2nc(N)nc(N)c2n1)c1ccc(C(=O)N[C@@H](CCC(=O)O)C(=O)O)cc1` [METHOTREXATE]: the “Log CR” value in the series on CHO [4] stood at 0.04; with L1210 [1] it was 2.55. In “physchem”, the logD was -2.52.

Take `CC1(C)N=C(N)N=C(N)N1c1cccc(C(N)=O)c1`: the logD in series [5] was -4.49. The “Log CR” value with L1210 [6] is listed as 1.85.

In series [5], `CCCCNc1ccc(C(=O)OCCN(C)C)cc1` [TETRACAINE] yielded a logD of 1. Besides, in the series with CHRC5 cell line, the Log sensitivity is listed as 0.7.

BLEOMYCIN: the figures for the Log CR in the series on L1210 [7] and with CHO [8] were 0.24 and 0, respectively.

The values above are taken from ChEMBL document CHEMBL1124835, “Structure-activity relationships of antineoplastic agents in multidrug resistance” (J Med Chem, 1990).
